From ChEMBL document CHEMBL4371054, “Dual inhibition of Kif15 by oxindole and quinazolinedione chemical probes” (Bioorg Med Chem Lett, 2019)
Calls of active or inactive are those of the source. The rule behind the calls is not given here.

Key:
[1] = target: T1, Kinesin-like protein KIF15 (Homo sapiens) (UniProt Q9NS87); test: Inhibition of recombinant His6-tagged Kif15 (N700 residues) (unknown origin) expressed in HeLa cells assessed as reduction in Alexa-594 labelled microtubule gliding at 750 nM measured every 2 secs for 20 secs by epifluorescence microscopic analysis (reference value: 1%); assay type: cell-based
T1 sequence (whole entry): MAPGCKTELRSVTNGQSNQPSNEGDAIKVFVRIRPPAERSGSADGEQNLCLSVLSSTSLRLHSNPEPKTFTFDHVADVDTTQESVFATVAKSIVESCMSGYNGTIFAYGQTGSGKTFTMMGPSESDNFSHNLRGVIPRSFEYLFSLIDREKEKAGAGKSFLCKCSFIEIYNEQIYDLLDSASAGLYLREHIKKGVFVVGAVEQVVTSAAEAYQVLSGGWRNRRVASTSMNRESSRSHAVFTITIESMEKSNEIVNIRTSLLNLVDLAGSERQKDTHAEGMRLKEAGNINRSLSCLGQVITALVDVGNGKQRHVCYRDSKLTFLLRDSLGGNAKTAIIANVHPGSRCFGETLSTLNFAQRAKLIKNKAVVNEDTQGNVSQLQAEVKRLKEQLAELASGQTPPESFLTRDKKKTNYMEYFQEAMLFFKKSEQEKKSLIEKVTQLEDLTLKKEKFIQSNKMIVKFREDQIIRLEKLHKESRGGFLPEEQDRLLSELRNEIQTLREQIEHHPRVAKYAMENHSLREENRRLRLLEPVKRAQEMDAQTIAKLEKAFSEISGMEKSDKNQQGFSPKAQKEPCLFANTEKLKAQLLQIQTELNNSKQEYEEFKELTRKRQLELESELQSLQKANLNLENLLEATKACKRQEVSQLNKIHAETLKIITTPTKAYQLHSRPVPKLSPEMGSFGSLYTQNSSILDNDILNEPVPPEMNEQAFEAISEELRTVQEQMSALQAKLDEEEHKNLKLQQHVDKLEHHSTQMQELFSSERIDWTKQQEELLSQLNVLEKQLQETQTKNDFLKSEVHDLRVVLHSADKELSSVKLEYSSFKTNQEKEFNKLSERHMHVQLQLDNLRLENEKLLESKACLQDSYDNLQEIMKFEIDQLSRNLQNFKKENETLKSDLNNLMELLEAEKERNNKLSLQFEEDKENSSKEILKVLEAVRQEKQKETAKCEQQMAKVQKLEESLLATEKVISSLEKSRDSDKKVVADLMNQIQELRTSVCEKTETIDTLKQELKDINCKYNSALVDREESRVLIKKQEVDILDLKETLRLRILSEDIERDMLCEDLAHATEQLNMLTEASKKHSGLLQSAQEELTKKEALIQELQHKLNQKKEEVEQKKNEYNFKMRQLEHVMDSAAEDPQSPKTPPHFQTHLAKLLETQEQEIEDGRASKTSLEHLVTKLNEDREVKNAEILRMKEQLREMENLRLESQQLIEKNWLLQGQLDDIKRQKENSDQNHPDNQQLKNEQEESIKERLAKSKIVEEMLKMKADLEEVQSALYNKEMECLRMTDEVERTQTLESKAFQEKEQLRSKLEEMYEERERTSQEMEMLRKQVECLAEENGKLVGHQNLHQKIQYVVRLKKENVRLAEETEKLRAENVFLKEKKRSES

[2] = target: T2, Kinesin-like protein KIF15 (Homo sapiens, UniProt Q9NS87); test: Inhibition of recombinant His6-tagged Kif15 ATPase activity (N420 residues) (unknown origin) expressed in HeLa cells using microtubule as substrate preincubated for 15 mins followed by ATP addition and measured after 20 mins by ADP-Glo luminescence assay
T2 sequence (Q9NS87 whole entry): T1 sequence (whole entry)

[3] = target: T1, Kinesin-like protein KIF15 (Homo sapiens); test: Inhibition of recombinant His6-tagged Kif15 ATPase activity (N420 residues) (unknown origin) expressed in HeLa cells at 10 uM using microtubule as substrate preincubated for 15 mins followed by ATP addition and measured after 20 mins by ADP-Glo luminescence assay relative to control
[4] = target: T1, Kinesin-like protein KIF15 (Homo sapiens); test: Inhibition of Kif15 in TP53-deficient human RPE1 cells assessed as effect on spindle length at 25 uM after 24 hrs by Hoechst 33342 staining based immunofluorescence microscopic analysis (reference value: 11.4 +/- 0.2 um)
[5] = target: T2, Kinesin-like protein KIF15; test: Inhibition of recombinant C-terminal truncated His6-tagged Kif15 (N700 residues) (unknown origin) expressed in Escherichia coli BL21 (DE3) assessed as reduction in microtubule gliding measured up to 2 mins
[6] = target: T1, Kinesin-like protein KIF15 (Homo sapiens); test: Inhibition of Kif15 in K51-resistant human KIRC1 cells assessed as cells with monopolar spindles at 25 uM after 24 hrs by Hoechst 33342 staining based immunofluorescence microscopic analysis (reference value: 43 to 49%); parameters: scale not given: the % may be the effect or the level left
[7] = target: T1, Kinesin-like protein KIF15 (Homo sapiens); test: ATP competitive inhibition of recombinant His6-tagged Kif15 ATPase activity (N700 residues) (unknown origin) expressed in HeLa cells at 5 uM using microtubule as substrate preincubated for 30 mins followed by varying levels of ATP addition by double reciprocal Lineweaver-Burk plot analysis
[8] = target: T1, Kinesin-like protein KIF15 (Homo sapiens); test: Inhibition of Kif15 in TP53-deficient human RPE1 cells assessed as reduction in spindle-bound Kif15 level at 25 uM after 24 hrs by Hoechst 33342 staining based immunofluorescence microscopic analysis relative to control
[9] = target: T1, Kinesin-like protein KIF15 (Homo sapiens); test: Inhibition of Kif15 in TP53-deficient human RPE1 cells assessed as reduction in Kif15 level at 25 uM after 24 hrs by Western blot analysis relative to control
[10] = target: T1, Kinesin-like protein KIF15 (Homo sapiens); test: Inhibition of Kif15 in TP53-deficient human RPE1 cells assessed as cells with bipolar pre-anaphase microtubule structure at 25 uM after 24 hrs by Hoechst 33342 staining based immunofluorescence microscopic analysis (reference value: 90 to 94%); parameters: scale not given: the % may be the effect or the level left
[11] = target: T1, Kinesin-like protein KIF15 (Homo sapiens); test: Reversible inhibition of recombinant His6-tagged Kif15 (N700 residues) (unknown origin) expressed in HeLa cells assessed as reduction in Alexa-594 labelled microtubule gliding at 10 uM treated for 1 min followed by compound washout and measured every 2 secs for 1 min by epifluorescence microscopic analysis; assay type: cell-based
[12] = target: T2, Kinesin-like protein KIF15; test: Inhibition of recombinant His6-tagged Kif15 (N700 residues) (unknown origin) expressed in HeLa cells assessed as reduction in Alexa-594 labelled microtubule gliding measured every 2 secs for 20 secs by epifluorescence microscopic analysis; assay type: cell-based

`COc1ccc(/C=C2\C(=O)Nc3ccc(C(=O)c4ccco4)cc32)cc1Br` showed an inhibition [1] of 2.3%.

For `O=C1Nc2ccc(C(=O)c3ccco3)cc2/C1=C/c1cc(Br)c(O)c(Br)c1`, the inhibition [1] was 65%.

For `O=C1Nc2ccc(C(=O)c3ccco3)cc2/C1=C/c1cc(F)c(O)c(Br)c1`, the inhibition [1] was 38%.

`O=C1Nc2ccc(C(=O)N3CCCC3)cc2/C1=C/c1cc(Cl)c(O)c(Cl)c1` was tested, and the inhibition [1] was -10%.

For `O=C1Nc2ccc(I)cc2/C1=C/c1cc(Br)c(O)c(Br)c1`, the IC50 [2] was 2500 nM and the inhibition [3] was 90%.

With `O=C1Nc2ccc(C(=O)c3ccco3)cc2/C1=C/c1ccc(Br)c(O)c1` the inhibition [1] was -5.6%.

Compound `O=C1Nc2ccc(-c3ccccn3)cc2/C1=C/c1cc(Cl)c(O)c(Cl)c1` has an inhibition [1] of 7.3%.

For `O=C1Nc2ccc(C(=O)c3ccco3)cc2/C1=C/c1ccc(O)c(Br)c1`, the inhibition [1] was 23%.

Compound `O=C1Nc2ccc(C(=O)c3ccco3)cc2/C1=C/c1cc(Br)cc(Br)c1` has an inhibition [1] of 16%.

`O=C1Nc2ccc(C(=O)c3ccco3)cc2/C1=C/c1ccc(O)c(C(F)(F)F)c1` gave an inhibition [1] of 9.5%.

`O=C1Nc2ccc(I)cc2/C1=C/c1cc(Cl)c(O)c(Cl)c1` gave an inhibition [1] of 15%.

Compound `CN(C)C(=O)c1ccc2c(c1)/C(=C/c1cc(Cl)c(O)c(Cl)c1)C(=O)N2` has an inhibition [1] of 15.3%.

Compound `O=C1Nc2ccc(C(=O)c3ccco3)cc2/C1=C/c1cccc(O)c1` has an inhibition [1] of 8.21%.

With `O=C1Nc2ccc(C(=O)c3ccco3)cc2/C1=C/c1cc(Cl)c(O)c(Br)c1` the inhibition [1] was 62%.

With `O=C1Nc2ccc(-c3ccco3)cc2/C1=C/c1cc(Cl)c(O)c(Cl)c1` the inhibition [1] was 33%.

Compound `O=C1Nc2ccc(C(=O)c3ccco3)cc2/C1=C/c1ccnc(Cl)c1` has an inhibition [1] of 15.8%.

For `CCOC(=O)c1sc(NC(=O)[C@H](C(C)C)n2c(=O)[nH]c3ccccc3c2=O)nc1C`, the Activity [4] was 9.9 µm, the IC50 [5] was 1720 nM and the Activity [6] was 84%. The inhibition [7] was “Active”, the inhibition [8] was “inactive” and the inhibition [9] was 15%. The Activity [10] was 96%, the inhibition [11] was “Active” and the IC50 [12] was 200 nM.

`O=C1Nc2ccc(C(=O)c3ccco3)cc2/C1=C/c1ccc(O)nc1` showed an inhibition [1] of 26.5%.

`O=C1Nc2ccc(C(=O)c3ccco3)cc2/C1=C/c1cc(F)c(O)c(F)c1` gave an inhibition [1] of 21%.

`O=C1Nc2ccc(C(=O)c3ccco3)cc2/C1=C/c1cc(I)c(O)c(I)c1` gave an inhibition [1] of 26%.

For `O=C1Nc2ccc(C(=O)c3ccco3)cc2/C1=C/c1ccncc1`, the inhibition [1] was 0.8%.

`Cc1cc(/C=C2\C(=O)Nc3ccc(C(=O)c4ccco4)cc32)cc(C)c1O` was tested, and the inhibition [1] was 9%.

In the case of `O=C1Nc2ccc(I)cc2/C1=C/c1cc(F)c(O)c(F)c1`, the inhibition [1] is reported as 4.8%.

With `COc1cc(/C=C2\C(=O)Nc3ccc(C(=O)c4ccco4)cc32)cc(Cl)c1O` the inhibition [1] was -3.5%.

`O=C1Nc2ccc(-c3cccc(F)c3)cc2/C1=C/c1cc(Cl)c(O)c(Cl)c1` was tested, and the inhibition [1] was -5.8%.
